Test results taken from patent publication US9227971B2, “Pyrazolo[1,5-a]pyrimidine compounds as mTOR inhibitors” (Merck Sharp & Dohme Corp., priority 2010, dated 2016).
Read-outs that look alike come from different tables or passages of the source.

What was measured:
[1] = system: phosphorylated AKT Ser473 (pAKT S473), mTORC2 activity, PC3 cells; assay: mTOR target engagement assay, immunofluorescent cell-based, pAKT S473 readout (mTORC2 activity); conditions: PC3 cells
Procedure, shortened: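 After blocking, cells were stained overnight at 4 °C with anti-pAKT S473 antibody, then a fluorescent secondary; inhibition was read as reduced fluorescence intensity.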

[2] = system: phosphorylated 4E-BP1 Thr37/46 (p4E-BP1 Thr37/46), mTORC1 activity, PC3 cells; assay: mTOR target engagement assay, immunofluorescent cell-based, p4E-BP1 Thr37/46 readout (mTORC1 activity); conditions: PC3 cells, read-out: p4E-BP1 Thr37/46 IC50
Procedure, shortened: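 Seed PC3 cells overnight; treat with compound dilutions for ninety minutes at 37° C; fix with glyoxal and block; stain with anti-p4E-BP1 Thr37/46 overnight at 4° C, then fluorescent secondary; read fluorescence and fit IC50 against DMSO-only controls.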

Row | Compound | IC50 ([1]; Homo sapiens, PC-3, Table 3-1) [nM] | IC50 ([2]; Homo sapiens, PC-3, Table 3-1) [nM] | IC50 ([1]; Table 3-1) [nM] | IC50 ([2]; Table 3-1) [nM]
1 | CS(=O)(=O)c1c([C@@H]2C[C@H]3CC[C@@H](C2)N3C(=O)c2cc(O)ccn2)nc2c(-c3ccc(-c4ccccc4)nc3)cnn2c1N [Compound 3.14, ((1R,3s,5S)-3-(7-amino-6-(methylsulfonyl)-3-(6-phenylpyridin-3-yl)pyrazolo[1,5-a]pyrimidin-5-yl)-8-azabicyclo[3.2.1]octan-8-yl)(4-hydroxypyridin-2-yl)methanone] | 100 to 1000 | 1000 to 10000 | – | –
2 | CS(=O)(=O)c1c([C@@H]2C[C@H]3CC[C@@H](C2)N3C(=O)C(O)C(F)(F)F)nc2c(-c3ccc(-c4ccccc4)nc3)cnn2c1N (stereo partly drawn) [Compound 3.15, 1-((1R,3s,5S)-3-(7-amino-6-(methylsulfonyl)-3-(6-phenylpyridin-3-yl)pyrazolo[1,5-a]pyrimidin-5-yl)-8-azabicyclo[3.2.1]octan-8-yl)-3,3,3-trifluoro-2-hydroxypropan-1-one] | 1000 to 10000 | 1000 to 10000 | – | –
3 | CS(=O)(=O)c1c([C@@H]2C[C@H]3CC[C@@H](C2)N3C(=O)c2ccc(O)cn2)nc2c(-c3ccc(-c4ccccc4)nc3)cnn2c1N [Compound 3.16, ((1R,3s,5S)-3-(7-amino-6-(methylsulfonyl)-3-(6-phenylpyridin-3-yl)pyrazolo[1,5-a]pyrimidin-5-yl)-8-azabicyclo[3.2.1]octan-8-yl)(5-hydroxypyridin-2-yl)methanone] | 1 to 100 | 100 to 1000 | – | –
4 | CNC(=O)c1ccc(-c2cnn3c(N)c(S(C)(=O)=O)c([C@@H]4C[C@H]5CC[C@@H](C4)N5C(=O)c4nc[nH]n4)nc23)cn1 [Compound 3.17, 5-(5-((1R,3s,5S)-8-(1H-1,2,4-triazole-3-carbonyl)-8-azabicyclo[3.2.1]octan-3-yl)-7-amino-6-(methylsulfonyl)pyrazolo[1,5-a]pyrimidin-3-yl)-N-methylpicolinamide] | > 10000 | 1000 to 10000 | – | –
5 | CS(=O)(=O)c1c([C@@H]2C[C@H]3CC[C@@H](C2)N3c2nnn[nH]2)nc2c(-c3ccc(-c4ccccc4)nc3)cnn2c1N [Compound 3.18, 5-((1R,3s,5S)-8-(1H-tetrazol-5-yl)-8-azabicyclo[3.2.1]octan-3-yl)-6-(methylsulfonyl)-3-(6-phenylpyridin-3-yl)pyrazolo[1,5-a]pyrimidin-7-amine] | > 10000 | > 10000 | – | –
6 | CS(=O)(=O)c1c([C@@H]2C[C@H]3CC[C@@H](C2)N3C=O)nc2c(-c3ccc(-c4ccccc4)nc3)cnn2c1N [Compound 3.19, (1R,3s,5S)-3-(7-amino-6-(methylsulfonyl)-3-(6-phenylpyridin-3-yl)pyrazolo[1,5-a]pyrimidin-5-yl)-8-azabicyclo[3.2.1]octane-8-carbaldehyde] | 100 to 1000 | 100 to 1000 | – | –
7 | CS(=O)(=O)c1c([C@@H]2C[C@H]3CC[C@@H](C2)N3c2nnc[nH]2)nc2c(-c3ccc(-c4ccccc4)nc3)cnn2c1N [Compound 3.21, 5-((1R,3s,5S)-8-(4H-1,2,4-triazol-3-yl)-8-azabicyclo[3.2.1]octan-3-yl)-6-(methylsulfonyl)-3-(6-phenylpyridin-3-yl)pyrazolo[1,5-a]pyrimidin-7-amine] | – | – | 1000 to 10000 | 1000 to 10000
8 | CS(=O)(=O)c1c([C@@H]2C[C@H]3CC[C@@H](C2)N3C(=O)c2nnc[nH]2)nc2c(-c3cnc(-c4ccccc4)c(O)c3)cnn2c1N [Compound 3.22, ((1R,3s,5S)-3-(7-amino-3-(5-hydroxy-6-phenylpyridin-3-yl)-6-(methylsulfonyl)pyrazolo[1,5-a]pyrimidin-5-yl)-8-azabicyclo[3.2.1]octan-8-yl)(4H-1,2,4-triazol-3-yl)methanone] | 100 to 1000 | 1000 to 10000 | – | –
9 | CS(=O)(=O)c1c([C@@H]2C[C@H]3CC[C@@H](C2)N3C(=O)CO)nc2c(-c3cnc(-c4ccccc4)c(O)c3)cnn2c1N [Compound 3.23, 1-((1R,3s,5S)-3-(7-amino-3-(5-hydroxy-6-phenylpyridin-3-yl)-6-(methylsulfonyl)pyrazolo[1,5-a]pyrimidin-5-yl)-8-azabicyclo[3.2.1]octan-8-yl)-2-hydroxyethanone] | 1000 to 10000 | 1000 to 10000 | – | –
10 | CS(=O)(=O)c1c([C@@H]2C[C@H]3CC[C@@H](C2)N3C(=O)c2nnc[nH]2)nc2c(-c3ccc(-c4nccs4)nc3)cnn2c1N [Compound 3.24, ((1R,3s,5S)-3-(7-amino-6-(methylsulfonyl)-3-(6-(thiazol-2-yl)pyridin-3-yl)pyrazolo[1,5-a]pyrimidin-5-yl)-8-azabicyclo[3.2.1]octan-8-yl)(4H-1,2,4-triazol-3-yl)methanone] | 1 to 100 | 1 to 100 | – | –
11 | CS(=O)(=O)c1c([C@@H]2C[C@H]3CC[C@@H](C2)N3C(=O)c2nnc[nH]2)nc2c(-c3cnc4ccc(F)cc4c3)cnn2c1N [Compound 3.25] | 1 to 100 | 1 to 100 | – | –
12 | CS(=O)(=O)c1c([C@@H]2C[C@H]3CC[C@@H](C2)N3S(=O)(=O)c2nnc[nH]2)nc2c(-c3ccc(-c4ccccc4)nc3)cnn2c1N [Compound 3.26, 5-((1R,3s,5S)-8-(4H-1,2,4-triazol-3-ylsulfonyl)-8-azabicyclo[3.2.1]octan-3-yl)-6-(methylsulfonyl)-3-(6-phenylpyridin-3-yl)pyrazolo[1,5-a]pyrimidin-7-amine] | 100 to 1000 | 1000 to 10000 | – | –
13 | C[C@H](O)C(=O)N1[C@@H]2CC[C@H]1C[C@H](c1nc3c(-c4ccc(-c5ccccc5)nc4)cnn3c(N)c1S(C)(=O)=O)C2 [Compound 3.27] | 100 to 1000 | 100 to 1000 | – | –
14 | C[C@@H](O)C(=O)N1[C@@H]2CC[C@H]1C[C@H](c1nc3c(-c4ccc(-c5ccccc5)nc4)cnn3c(N)c1S(C)(=O)=O)C2 [Compound 3.28, (R)-1-((1R,3S,5S)-3-(7-amino-6-(methylsulfonyl)-3-(6-phenylpyridin-3-yl)pyrazolo[1,5-a]pyrimidin-5-yl)-8-azabicyclo[3.2.1]octan-8-yl)-2-hydroxypropan-1-one] | 100 to 1000 | 100 to 1000 | – | –
15 | CS(=O)(=O)c1c([C@@H]2C[C@H]3CC[C@@H](C2)N3C(=O)c2nnc(O)[nH]2)nc2c(-c3ccc(-c4ccccc4)nc3)cnn2c1N [Compound 3.29, ((1R,3s,5S)-3-(7-amino-6-(methylsulfonyl)-3-(6-phenylpyridin-3-yl)pyrazolo[1,5-a]pyrimidin-5-yl)-8-azabicyclo[3.2.1]octan-8-yl)(5-hydroxy-4H-1,2,4-triazol-3-yl)methanone] | 100 to 1000 | 100 to 1000 | – | –
16 | CNC(=O)N1[C@@H]2CC[C@H]1C[C@H](c1nc3c(-c4ccc(-c5ccccc5)nc4)cnn3c(N)c1S(C)(=O)=O)C2 [Compound 3.30, (1R,3s,5S)-3-(7-amino-6-(methylsulfonyl)-3-(6-phenylpyridin-3-yl)pyrazolo[1,5-a]pyrimidin-5-yl)-N-methyl-8-azabicyclo[3.2.1]octane-8-carboxamide] | 100 to 1000 | 100 to 1000 | – | –
17 | CS(=O)(=O)c1c([C@@H]2C[C@H]3CC[C@@H](C2)N3C(=O)c2nnc[nH]2)nc2c(-c3ccc(-c4ccccn4)cc3)cnn2c1N [Compound 3.31, ((1R,3s,5S)-3-(7-amino-6-(methylsulfonyl)-3-(4-(pyridin-2-yl)phenyl)pyrazolo[1,5-a]pyrimidin-5-yl)-8-azabicyclo[3.2.1]octan-8-yl)(4H-1,2,4-triazol-3-yl)methanone] | 1 to 100 | 100 to 1000 | – | –
18 | COc1ccc(-c2ccc(-c3cnn4c(N)c(S(C)(=O)=O)c([C@@H]5C[C@H]6CC[C@@H](C5)N6C(=O)c5nnc[nH]5)nc34)cn2)c(F)c1 [Compound 3.32, ((1R,3s,5S)-3-(7-amino-3-(6-(2-fluoro-4-methoxyphenyl)pyridin-3-yl)-6-(methylsulfonyl)pyrazolo[1,5-a]pyrimidin-5-yl)-8-azabicyclo[3.2.1]octan-8-yl)(4H-1,2,4-triazol-3-yl)methanone] | 1 to 100 | 1 to 100 | – | –
19 | COc1ccc(-c2ccc(-c3cnn4c(N)c(S(C)(=O)=O)c([C@@H]5C[C@H]6CC[C@@H](C5)N6C(=O)c5nnc[nH]5)nc34)cn2)cc1 [Compound 3.33, ((1R,3s,5S)-3-(7-amino-3-(6-(4-methoxyphenyl)pyridin-3-yl)-6-(methylsulfonyl)pyrazolo[1,5-a]pyrimidin-5-yl)-8-azabicyclo[3.2.1]octan-8-yl)(4H-1,2,4-triazol-3-yl)methanone] | 1 to 100 | 1 to 100 | – | –
20 | COc1ccc(-c2ccc(-c3cnn4c(N)c(S(C)(=O)=O)c([C@@H]5C[C@H]6CC[C@@H](C5)N6C(=O)c5nnc(C)[nH]5)nc34)cn2)cc1 [Compound 3.34, ((1R,3s,5S)-3-(7-amino-3-(6-(4-methoxyphenyl)pyridin-3-yl)-6-(methylsulfonyl)pyrazolo[1,5-a]pyrimidin-5-yl)-8-azabicyclo[3.2.1]octan-8-yl)(5-methyl-4H-1,2,4-triazol-3-yl)methanone] | 1 to 100 | 1 to 100 | – | –
21 | COc1ccc(-c2ccc(-c3cnn4c(N)c(S(C)(=O)=O)c([C@@H]5C[C@H]6CC[C@@H](C5)N6C(=O)c5nnc[nH]5)nc34)cn2)s1 [Compound 3.35, ((1R,3s,5S)-3-(7-amino-3-(6-(5-methoxythiophen-2-yl)pyridin-3-yl)-6-(methylsulfonyl)pyrazolo[1,5-a]pyrimidin-5-yl)-8-azabicyclo[3.2.1]octan-8-yl)(4H-1,2,4-triazol-3-yl)methanone] | 1 to 100 | 1 to 100 | – | –
22 | COc1ccc(-c2ccc(-c3cnn4c(N)c(S(C)(=O)=O)c([C@@H]5C[C@H]6CC[C@@H](C5)N6C(=O)CO)nc34)cn2)cc1 [Compound 3.36, 1-((1R,3s,5S)-3-(7-amino-3-(6-(4-methoxphenyl)pyridin-3-yl)-6-(methylsulfonyl)pyrazolo[1,5-a]pyrimidin-5-yl)-8-azabicyclo[3.2.1]octan-8-yl)-2-hydroxyethanone] | 1 to 100 | 1 to 100 | – | –
